Reference: patent US20260286302A1, “METHODS FOR PRODUCING A SUPER CENTRAL MEMORY CD8 T CELL SUBTYPE BY POLY(ADP-RIBOSE) POLYMERASE (PARP) INHIBITION AND USES THEREOF” (Georgetown University, priority 2023, published 2026)

Tests used:
[1] = test system: pMel-1 CD8 T cells; assay type: cell-based
Description: For ACT experiments, CD8+ T cells from pMel-1 mice were activated with gp100 peptide with and without PARPi for 48 h. Based on their CD44 and CD62L expression, cells were sorted by FACS and transferred into 9-day-old B16F10 melanoma-bearing mice tumor-bearing mice (1×10^6 cells per mouse). Tumor growth and survival of mice were monitored.
A total of 0.1-0.2×10^6 cells per sample were stained for Live/Dead staining followed by fixation and permeabilization. […] CD8^+ T cells from tumor samples were stained similarly. Data acquisition was performed on a BD LSR II flow cytometer using the software FACS Diva v.9.0. Results were analyzed using FlowJo software (TreeStar). […]

[2] = test system: TC-1; test: Tumor growth in immune deficient nude mice (TC-1); assay type: in vivo, mouse; settings: TC-1 in immune deficient nude mice
Description: (§1) The effect of PARPi on direct CD8 T cell-driven anti-tumor immune response remains poorly understood. Therefore, to dissect this effect, the anti-tumor immune effect of PARPi was tested in vivo in tumor models that require T cell priming, which helps delineate the direct effect of the drug on CD8 T cells. […] While 18% and 10% of mice survived in the vaccine-treated and PARPi-treated groups, respectively, in the TC-1 tumor model at day 22, 90% survived when PARPi was added to the vaccine. Similarly, in the B16F10 tumor model, 10% of the mice treated with vaccine alone were alive at day 22, compared to 40% when PARPi was added.

[3] = test system: pMel-1 CD8 T cells; test: RNA-sequencing of gp100-activated pMel-1 CD8 T cells; assay type: cell-based, mouse
Text: Ribo-Zero Plus Kit from Illumina® was used for stranded Total RNA Prep Ligation. This protocol involves the removal of ribosomal RNA (rRNA) using biotinylated, target-specific oligos combined with Ribo-Zero rRNA removal beads. RNA was fragmented into small pieces and the cleaved RNA fragments were copied into first strand cDNA using reverse transcriptase and random primers, followed by second strand cDNA synthesis using DNA Polymerase I and RNase H. The resulting double-strand cDNA were used as the input to a standard Illumina library prep with end-repair, adapter ligation and PCR amplification being performed to give a sequencing ready library. The final purified product was then quantitated by qPCR before cluster generation and sequencing on NovaSeq 6000 instrument.

[4] = test system: B16F10 tumors; test: B16F10 tumor model: tumor growth and survival; assay type: in vivo, mouse
Description: (§2) C57BL/6J mice were injected with 7×10^4 TC-1 cells per mouse or 1×10^5B16F10 cells per mouse in the right flank. Treatment in respective groups was started when tumors reached an average size of approximately 0.075 cm^3. […] Mice were treated daily with IP injection at a dose of 50 mg kg-1.
(§3) For vaccination, TC-1-specific E7 peptide (a nine amino acid peptide, […] (SEQ ID NO: 1); 100 μg per mouse per 100 μl; Celtak Bioscience) or B16-specific gp10025-33 nonamer peptide ([…] (SEQ ID NO: 2); 100 μg per mouse per 100 μl; AnaSpec) were used. Both the vaccines were mixed with a small 13-mer nonnatural pan-HLA DR-binding epitope (PADRE (SEQ ID NO: 3); aK-Cha-[…]a (SEQ ID NO: 4), where ‘a’ is d-alanine, and ‘Cha’ is 1-cyclohexylalanine, T helper epitope, 20 μg per mouse; Celtak Bioscience) and QuilA (adjuvant, 10 μg per mouse; Brenntag). For survival and therapy experiments, mice were vaccinated three times, starting at an average tumor size of 0.07 cm^3, while for immune response experiments mice were vaccinated twice with a one-week interval between vaccinations. Tumors were measured every 3-4 days using a digital vernier caliper, and the tumor volume was calculated using the formula: V=L×W2/2000, where V is tumor volume, L is the length of the tumor (longer diameter) and W is the width of the tumor (shorter diameter). Mice were monitored for tumor growth and survival. Mice were euthanized when the tumor volume reached 1.5 cm^3.

[5] = test system: TC-1 tumors; test: TC-1 tumor model: tumor growth and survival; assay type: in vivo, mouse; settings: for mice survived: TC-1 tumor model, day 22
Description: as §2, §3

[6] = test system: pMel-1 CD8 T cells; test: Seahorse assays (OCR, ECAR); assay type: cell-based, mouse; settings: PARPi-induced TCM^sup vs gp100-induced TCM
Description: CD8 T cells were activated with gp100 peptide with/without PARPi for 48 h, followed by mitochondrial stress tests (SeaHorse Bioscience), performed as per the manufacturer's specifications. OCR and ECAR were measured with an XFp flux analyzer (Seahorse Bioscience). For all assays, 160,000 cell per ml were plated onto culture plates using Cell-Tak (BD Biosciences). OCR and ECAR were measured in unbuffered DMEM (Agilent Biotechnologies) supplemented with 10 mM D-glucose (Sigma-Aldrich), 10 mM L-glutamine and 2.5 mM pyruvate, as indicated. The rates of FAO were determined in variously treated cells, as described above, using a Seahorse XF Palmitate-BSA FAO Reagent kit, used according to the manufacturer's instructions (Agilent Biotechnologies).

[7] = test system: WT CD8 T cells; test: WT CD8 T cells activated with anti-CD3/CD28; assay type: cell-based, mouse; settings: anti-CD3/CD28 activation in the presence of PARPi, 48 h
[8] = test system: B16F10; test: Tumor growth in immune deficient nude mice (B16F10); assay type: in vivo, mouse
Description: as §1

O=C(c1cc(Cc2n[nH]c(=O)c3ccccc23)ccc1F)N1CCN(C(=O)C2CC2)CC1 [olaparib]
toxicity (percentage of live cells) ([1]; 48 h time point): did not show any significant toxicity | phenotype of CD44intCD62Lint intermediate population ([1]; 96 h after PARPi treatment): shifted more toward CD44^hiCD62L^hi population | expression of memory markers Eomes, CCR7 and Bcl2 ([1]; CD44hiCD62Lhi population compared to TCM, 48 h): significantly increased | mitochondrial mass (MitoFM) ([1]; TCM^sup cells): increase | PGC1α expression ([1]; TCM^sup cells vs TCM from gp100): increase | level of γH2AX ([1]; activated pMel-1 CD8 T cells): increase | IFNγ and Gzm B in PARPi-induced CD44hiCD62Lhi cells ([1]; compared to TCM, 48 h): significantly higher | IFNγ and Gzm B expression on activated CD8 T cells ([1]; compared to gp100 alone, 48 h): significant increase | cell cycle ([1]; gp100-activated, 48 h): arrested in the G2/M phase | proliferation capacity (Ki67) ([1]; gp100-activated, 48 h): significantly reduced | percentage of CD44hiCD62Lhi TCM CD8 T cell population ([1]; gp100-activated, 48 h of treatment, for PARPi concentration-dependent): increase | tumor growth [2]: did not affect tumor growth | genes related to OXPHOS and FAO (Acot1, Cpt1α) ([3]; PARPi-treated vs gp100, 48 h): significantly upregulated | genes related to the glycolysis pathway (Eno1, Aldoc, Pgk1, Gapdh) ([3]; PARPi-treated vs gp100, 48 h): significantly downregulated | expression of genes related to memory (Sell, Bcl2, Ccr7, Slpr1, Cd44, Tcf7, Klf2, Eomes) ([3]; after PARPi treatment, 48 h): significant increase | tumor growth and survival, enhancement of anti-tumor immune response of the vaccine ([4]; B16F10, PARPi 50 mg/kg IP daily in combination with gp100 vaccine): significantly retarding tumor growth and prolonging survival | mice alive ([4]; B16F10 tumor model, day 22, PARPi added to the vaccine (gp100)): 40% | single agent effect ([4]; B16 model, PARPi alone): no single agent effect | tumor growth and survival, enhancement of anti-tumor immune response of the vaccine ([5]; TC-1, PARPi 50 mg/kg IP daily in combination with HPV E7 vaccine): significantly retarding tumor growth and prolonging survival | anti-tumor effect after depletion of CD8 T cells ([5]; TC-1, PARPi with vaccine, CD8 T cell depleting antibodies): loss of the anti-tumor effect | mice survived ([5]; PARPi added to the vaccine (HPV E7)): 90% | mice survived ([5]; treatment alone): 10% | extracellular acidification rate (ECAR; Glycolysis) [6]: decrease | oxygen consumption rate (OCR; OXPHOS) [6]: significant increase | generation of the CD44hiCD62Lhi population [7]: also seen | tumor growth [8]: did not affect tumor growth
